Test results as given in PubChem BioAssay AID489022 (Sanford-Burnham Center for Chemical Genomics, 2010).
The source made the active and inactive calls. How the calls were made is not given here.

test system: HEK-293T NF-kB luciferase reporter, luminescence counterscreen; assay: inhibitors of NF-kB luciferase reporter, HEK-293T, dose response, counter-screen for BCR NF-kB inhibitor project, luminescence, B-cell screen hits (AID 489022)

Compound | IC50
COc1ccc(S(=O)(=O)Nc2cc3c(C(C)=O)c(C)oc3c3ccccc23)cc1 | > 80 µM (inactive)
CCc1ccc2[nH]c3nc(N/N=C/c4cccc(O)c4)nnc3c2c1 | > 80 µM (inactive)
Cc1cc(C)cc(NC(=O)c2nnn(Cc3cc(C)ccc3C)c2N)c1 | 4.79 µM
CCOC(=O)c1sc(NC(=O)c2cc(-c3ccccc3C)nc3ccccc23)c(C#N)c1C | 0.29 µM
Cn1c(=O)c2c(SCC(=O)Nc3ccccc3F)nc(-c3ccccc3F)nc2n(C)c1=O | > 80 µM (inactive)
O=C1CCC2S/C(=C/Nc3ccc(C(F)(F)F)cc3)C(=O)N12 (stereo not drawn) | 3.77 µM
Cc1ccc(Nc2nc(N3CCOCC3)nc(N3CCOCC3)n2)cc1C | 51.4 µM (inactive)
COc1cc(/C(C)=N\NC(N)=S)cc(OC)c1OC | > 80 µM (inactive)
CCN(CC)CCOC(=O)c1ccc(NC(=O)COc2cc(=O)n(CC)c3ccccc23)cc1 | 43.8 µM (inactive)
O=S(=O)(NCc1ccncc1)c1ccc(Br)s1 | 0.86 µM
Cc1nc(Nc2c(Cl)cccc2Cl)sc1C(=O)Nc1ccccc1 | 33 µM (inactive)
Cc1ccc(S(=O)(=O)Nc2ccc3c(c2)n(C)c(=O)n3C)cc1 | 65.2 µM (inactive)
COc1ccccc1/C=C1\SC(=S)N(CCC(=O)NC2=NCCS2)C1=O | > 80 µM (inactive)
CCN(C(=O)CN1C(=O)NC(c2ccccc2)(c2ccc(C)c(C)c2)C1=O)C1CCCCC1 (stereo not drawn) | 26.6 µM (inactive)
CCN(CC(=O)Nc1c(F)cccc1F)C(=O)c1cc(S(=O)(=O)N2CCOCC2)ccc1N1CCCC1 | > 80 µM (inactive)
COc1cccc(/C=C2/SC(=S)N(CCCC(=O)Nc3ccc(O)cc3)C2=O)c1 | 50.6 µM (inactive)
Cc1ccoc1C(=O)Nc1ccc(CC(=O)O)cc1 | 14.2 µM
COc1ccc(CC(=O)Nc2cccc(-c3ccc4nnc(C)n4n3)c2)cc1 | 41.8 µM (inactive)
CC1(C)CC2CC(C)(CN2S(=O)(=O)c2ccc(C(=O)Nc3ccc(S(=O)(=O)N4CCOCC4)cc3)cc2)C1 (stereo not drawn) | 0.68 µM
Cc1ccc(-c2nn3c(C)nnc3c3ccccc23)cc1S(=O)(=O)NCCN1CCOCC1 | 32 µM (inactive)
Cc1ccc(C(=O)NNC(=O)CCCN2C(=O)/C(=C/c3ccccc3Cl)SC2=S)cc1 | 30.8 µM (inactive)
COc1ccc(/C=C/c2ccccc2)cc1[C@H]1[C@H]2C=CC[C@@H](C)[C@@H]2C(=O)N1Cc1ccccc1 | > 80 µM (inactive)
CCN1C(=O)Nc2cccc3cccc1c23 | 17.8 µM
CCOc1cc(/C=N\Nc2nc(Nc3ccccc3)nc(N3CCOCC3)n2)ccc1OC(=O)c1ccco1 | > 80 µM (inactive)

Compound | IC50
CC1CCc2c(sc3nc(C(C)(C)C)nc(N4CCN(C(=O)CCl)CC4)c23)C1 (stereo not drawn) | 30.6 µM (inactive)
O=C(CCCN1C(=O)/C(=C/c2ccccc2Cl)SC1=S)Nc1ccccn1 | 23.7 µM (inactive)
N=c1ccn(Cc2ccccc2Cl)cc1 | 21.3 µM (inactive)
CC(=O)Nc1ccc(Nc2nc(-c3sc(NC(C)=O)nc3C)cs2)cc1 | 47.1 µM (inactive)
CCOc1ccc(-c2cc(CCCC(=O)NCCCOC)no2)cc1 | 60 µM (inactive)
Cc1ccc(S(=O)(=O)CC2CSc3nc4ccccc4n32)cc1 (stereo not drawn) | 0.41 µM
COc1ccc(OCc2cccc(C(=O)Nn3cc([N+](=O)[O-])cn3)c2)cc1 | 11.9 µM
COc1ccccc1/C=C1/SC(=S)N(CCC(=O)Nc2cccnc2)C1=O | 37 µM (inactive)
COc1ccc(C(=O)n2nc(-c3ccc(Cl)cc3)nc2N)cc1OC | > 80 µM (inactive)
O=C(Nc1nc2c(Br)cc(Br)cc2c(=O)s1)c1ccco1 | > 80 µM (inactive)
CC1Cc2ccccc2N1S(=O)(=O)c1cnc(Cl)c(Br)c1 (stereo not drawn) | 41.6 µM (inactive)
CCN(CC(=O)Nc1c(F)cccc1F)C(=O)c1cc(S(=O)(=O)N(CC)CC)ccc1N1CCCCC1 | 26.8 µM (inactive)
Cc1ccc(C(=O)CSc2nnc(COc3ccccc3)o2)cc1 | 40.9 µM (inactive)
Cc1c(CCC(=O)NCCCn2ccnc2)c(=O)oc2c(C)c3oc4c(c3cc12)CCCC4 | 6.65 µM
COc1ccc(-c2ccc(N(C)C)cc2)cc1[C@H]1[C@H]2C=CC[C@@H](C)[C@@H]2C(=O)N1Cc1ccccc1 | > 80 µM (inactive)
COC(=O)c1c(-c2ccc(N(C)C)cc2)sc2ccc(OC)cc12 | > 80 µM (inactive)
COc1ccccc1/C=C1\SC(=S)N(CCC(=O)Nc2cc(C)on2)C1=O | > 80 µM (inactive)
CC(C)C[C@@H](N)c1nnc(SCC(=O)c2ccc(Cl)cc2)o1 | 31.9 µM (inactive)
COc1ccccc1/C=C1\SC(=S)N(CCC(=O)Nc2nnc(C)s2)C1=O | > 80 µM (inactive)
Cc1cc(-c2cc(C(=O)NCc3ccccc3)on2)nc(S(C)(=O)=O)n1 | 15.6 µM
COc1cccc(-c2noc(CCC(=O)NCCc3ccccc3)n2)c1 | 75.4 µM (inactive)
O=C(CN1C(=O)c2ccccc2S1(=O)=O)c1ccc(OC(F)F)cc1 | 5.26 µM
Cc1cc(C)nc(Sc2ccc([N+](=O)[O-])cc2[N+](=O)[O-])n1 | > 80 µM (inactive)
CCc1ccc(/C=C2/SC(=S)N(CCC(=O)Nc3cccc(C(=O)O)c3)C2=O)cc1 | > 80 µM (inactive)
